The subject of one series is MbtA. The note with it: 44.2 μM MbtA, ligand 0.75 mM.
Another series deals with HepG2 cells. Nature of the series: HepG2 cytotoxicity.
The subject of the next series is M. tuberculosis H37Rv. As to the kind of experiment: MIC determination against M. tuberculosis H37Rv in liquid medium. The following applies: Mycobacterium tuberculosis, 120 h, read-out: H37Rv MIC90. The series is classed as cell-based.
Another series is described as follows: HepG2 cytotoxicity. The note with it: human, HepG2 cells.

Molecules are shown by their SMILES. Values after ≈ are worked out from the molar mass of the structure shown.

By IC50 is commonly meant the midpoint of a concentration-inhibition curve. Low readings indicate inhibition by little substance, high ones a need for much substance. As usually defined, the MIC90 is an inhibitory concentration at the 90% level, which refers to growth in some studies and to a panel of isolates in others.

`O=[N+]([O-])c1cc(C(F)(F)F)ccc1NCCc1c[nH]c2ccc(O)cc12` [Compound 5, 5-hydroxy-indol-3-ethylamino-(2-nitro-4-trifluoromethyl)benzene] registered an IC50 with RAW 264.7 cells of 29 µM. For the same molecule, in the series with MbtA, the “Response in STD and Water-LOGSY experiments” value is on record as “positive responses”. Also, the “HepG2 cytotoxicity, IC50 towards cells grown in both media” value in the series on HepG2 cells (glucose and galactose media) is “relatively low cytotoxicity”. The “Ratio (Glu/Gal)” value in the series on HepG2 cells (ratio of HepG2 IC50 in glucose to galactose medium (mitochondrial toxicity)) is 1.2.

As to `CO[C@H]1/C=C/O[C@@]2(C)Oc3c(C)c(O)c4c(O)c(c(/C=N/N5CCN(C)CC5)c(O)c4c3C2=O)NC(=O)/C(C)=C\C=C\[C@H](C)[C@H](O)[C@@H](C)[C@@H](O)[C@@H](C)[C@H](OC(C)=O)[C@@H]1C` [Rifampicin, reference compound], the MIC90 in the series on M. tuberculosis H37Rv was 0.1 µM (≈ 0.0823 µg/mL). Further, the IC50 at 2 days in “HepG2 cytotoxicity” is > 100 µM.

The record behind these values is PMC6800809 (ChemMedChem, 2019).
